Bridge positions count the residues as written; N and C are the ends. Square brackets hold non-standard residues; d marks the D form. Peptide text beside a SMILES is read from it. R8 = C=CCCCCCC[C@@](C)(N)C(=O)O; S5 = C=CCCC[C@](C)(N)C(=O)O; Nle = CCCC[C@H](N)C(=O)O
Tests used:
[1] = test system: HRE-bla ME-180 cells; assay: Reporter gene assay (HRE-bla ME-180 HIF reporter, GeneBLAzer); format: cell-based, human; settings: for EC50: 24 hour normoxia
Method in brief: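 A FRET β-lactamase readout of HIF transcription was used. After compound treatment in 0.3% DMSO/media under normoxic conditions, 20 μl of 6× LiveBLAzer-FRET B/G (CCF4-AM) substrate was added. Plates sat 3 hr at room temperature in the dark and were read at 409 Ex/460Em and 409Ex/530Em on a Synergy 2. Inhibition was compared against DMSO vehicle controls, with chetomin as positive control.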

[2] = test system: HRE-bla ME-180 cells; assay: Cell proliferation assay (viability, MTT, 1% FBS); format: cell-based, human
Method in brief: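 Viable cell number was measured with the CellTiter 96 (MTT) kit after compounds were applied for a 16 h normoxic (21% O2) pretreatment, followed by further normoxic or hypoxic (1% O2) culture. Cells: 2×10^4 ME-180 per well, Opti-MEM + 1% FBS, 0.5% DMSO vehicle.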

[3] = biological target: T1, flag-tagged HIF1α (AA 786-826) / His6-tagged p300 (AA 323-423) complex (Homo sapiens, UniProt Q09472); assay: HIF1α p300 displacement assay (TR FRET, +CHAPS); format: binding; settings: read-out: IC50 (nM) (HIF1α_p300 Displacement + CHAPS)
T1 construct: His6-tagged p300 (AA 323-423); made in house; host or cells: E. coli (pETDuet vector)
Method in brief: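 In this TR-FRET displacement format, peptides compete HIF1α C-terminal transactivation domain off p300-CH. They were preincubated 1 h at room temperature with 300 nM complex in HEPES pH 7.4/NaCl buffer with 7.5 mM CHAPS and 1 mM DTT. Anti-His-D2 (4 nM) and anti-Flag-K (0.5 μM) followed for 2 h, and a one-site fit of the fluorescence ratio gave IC50.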

CCCC[C@H](NC(=O)[C@H](Cc1ccccc1)NC(=O)[C@@H](NC(=O)[C@H](CCC(N)=O)NC(=O)[C@H](CCC(N)=O)NC(=O)[C@H](CC(N)=O)NC(=O)[C@@H](NC(=O)[C@H](Cc1ccccc1)NC(C)=O)[C@@H](C)CC)C(C)C)C(=O)N[C@@]1(C)CCCC=CCCC[C@@](C)(C(=O)N[C@@H](CCCC)C(=O)N[C@@H](C)C(=O)N[C@@H](CC(C)C)C(=O)N[C@@H](CC(C)C)C(N)=O)NC(=O)[C@H]([C@@H](C)CC)NC(=O)[C@H](C(C)C)NC(=O)[C@H](CC(C)C)NC1=O [SP-248] (Ac-FINQQVF[Nle][S5]LVI[S5][Nle]ALL-NH2; staple 9-13)
18 h Avg % max inhibition at top conc (HIF Rptr-24 hrs normoxia) (μM) [1]: +++ (≤25 but <50: +++)
EC50 [1]: > 30 µM
Viability 1% FBS AVG (MTT V3-24 hr Normoxia) (μM) [2]: ++++ (≥30: ++++)
IC50 [3]: > 700 nM

CCCC[C@H](NC(=O)[C@H](CCC(=O)O)NC(=O)[C@]1(C)CCCC=CCCCCCC[C@@](C)(NC(=O)[C@H](CCC(=O)O)NC(=O)[C@H](CC(=O)O)NC(=O)[C@@H](NC(=O)[C@H](CC(N)=O)NC(=O)[C@@H](NC(=O)[C@H](CCC(N)=O)NC(=O)[C@H](CC(=O)O)NC(=O)[C@H](CC(C)C)NC(=O)[C@]2(C)CCCC=CCCC[C@](C)(NC(=O)[C@H](CCC(=O)O)NC(=O)CNC(=O)[C@H](CCC(N)=O)NC(=O)[C@H](CC(C)C)NC(=O)[C@H](CC(C)C)NC(C)=O)C(=O)N[C@@H](CC(C)C)C(=O)N[C@@H](CC(C)C)C(=O)N[C@@H](CCCNC(=N)N)C(=O)N2)C(C)C)[C@@H](C)CC)C(=O)N[C@@H](C(C)C)C(=O)N[C@@H](CC(C)C)C(=O)N[C@@H](CCCC)C(=O)N[C@@H](CO)C(=O)N[C@@H](CC(C)C)C(=O)N[C@@H](C(C)C)C(=O)N1)C(=O)NCC(N)=O [SP-311] (Ac-LLQGE[S5]LLR[S5]LDQVNIDE[R8]VL[Nle]SLV[S5]E[Nle]G-NH2; staple 6-10, 19-26)
18 h Avg % max inhibition at top conc (HIF Rptr-24 hrs normoxia) (μM) [1]: ++ (≤10 but <25: ++)
EC50 [1]: > 30 µM
Viability 1% FBS AVG (MTT V3-24 hr Normoxia) (μM) [2]: ++++ (≥30: ++++)
IC50 [3]: > 700 nM

CCCC[C@H](NC(=O)[C@H](CCC(=O)O)NC(=O)[C@]1(C)CCCC=CCCCCCC[C@@](C)(NC(=O)[C@H](CCC(=O)O)NC(=O)[C@H](C)NC(=O)[C@@H](NC(=O)[C@H](Cc2ccccc2)NC(C)=O)[C@@H](C)CC)C(=O)N[C@@H](C(C)C)C(=O)N[C@@H](CC(C)C)C(=O)N[C@@H](CCCC)C(=O)N[C@@H](CO)C(=O)N[C@@H](CC(C)C)C(=O)N[C@@H](C(C)C)C(=O)N1)C(=O)N[C@@H](C)C(=O)N[C@@H](CC(C)C)C(=O)N[C@@H](CC(=O)O)C(=O)N[C@@H](C)C(=O)N[C@H](C(N)=O)[C@@H](C)CC [SP-192] (Ac-FIAE[R8]VL[Nle]SLV[S5]E[Nle]ALDAI-NH2; staple 5-12)
18 h Avg % max inhibition at top conc (HIF Rptr-24 hrs normoxia) (μM) [1]: ++ (≤10 but <25: ++)
EC50 [1]: > 30 µM
Viability 1% FBS AVG (MTT V3-24 hr Normoxia) (μM) [2]: ++++ (≥30: ++++)
IC50 [3]: 200 to 400 nM

CCCC[C@H](NC(=O)[C@H](CCC(=O)O)NC(=O)[C@]1(C)CCCC=CCCCCCC[C@@](C)(NC(=O)[C@H](CCC(=O)O)NC(=O)[C@H](CC(=O)O)NC(=O)[C@@H](NC(=O)[C@H](CC(N)=O)NC(=O)[C@@H](NC(=O)[C@H](CCC(N)=O)NC(=O)[C@]2(C)CCCC=CCCC[C@](C)(NC(=O)[C@H](CC(C)C)NC(=O)[C@H](C)NC(=O)[C@H](CCC(=O)O)NC(=O)CNC(=O)[C@H](CCC(N)=O)NC(=O)[C@H](CC(C)C)NC(=O)[C@H](CC(C)C)NC(C)=O)C(=O)N[C@@H](CCCNC(=N)N)C(=O)N[C@@H](C)C(=O)N[C@@H](CC(C)C)C(=O)N2)C(C)C)[C@@H](C)CC)C(=O)N[C@@H](C(C)C)C(=O)N[C@@H](CC(C)C)C(=O)N[C@@H](CCCC)C(=O)N[C@@H](CO)C(=O)N[C@@H](CC(C)C)C(=O)N[C@@H](C(C)C)C(=O)N1)C(N)=O [SP-361] (Ac-LLQGEAL[S5]RAL[S5]QVNIDE[R8]VL[Nle]SLV[S5]E[Nle]-NH2; staple 8-12, 19-26)
18 h Avg % max inhibition at top conc (HIF Rptr-24 hrs normoxia) (μM) [1]: ++ (≤10 but <25: ++)
EC50 [1]: > 30 µM
Viability 1% FBS AVG (MTT V3-24 hr Normoxia) (μM) [2]: ++++ (≥30: ++++)
IC50 [3]: > 700 nM

CCCC[C@H](NC(=O)[C@H](CCC(=O)O)NC(=O)[C@]1(C)CCCC=CCCCCCC[C@@](C)(NC(=O)[C@H](CCC(=O)O)NC(=O)[C@H](C)NC(=O)[C@H](C)NC(=O)[C@H](C)NC(=O)[C@H](C)NC(=O)[C@]2(C)CCCC=CCCCCCC[C@@](C)(NC(=O)[C@H](CCC(=O)O)NC(=O)CNC(=O)[C@H](CCC(N)=O)NC(=O)[C@H](CC(C)C)NC(=O)[C@H](CC(C)C)NC(C)=O)C(=O)N[C@@H](CC(C)C)C(=O)N[C@@H](CC(C)C)C(=O)N[C@@H](CCCNC(=N)N)C(=O)N[C@@H](C)C(=O)N[C@@H](CC(C)C)C(=O)N[C@@H](CC(=O)O)C(=O)N2)C(=O)N[C@@H](C(C)C)C(=O)N[C@@H](CC(C)C)C(=O)N[C@@H](CCCC)C(=O)N[C@@H](CO)C(=O)N[C@@H](CC(C)C)C(=O)N[C@@H](C(C)C)C(=O)N1)C(N)=O [SP-352] (Ac-LLQGE[R8]LLRALD[S5]AAAAE[R8]VL[Nle]SLV[S5]E[Nle]-NH2; staple 6-13, 19-26)
18 h Avg % max inhibition at top conc (HIF Rptr-24 hrs normoxia) (μM) [1]: ++ (≤10 but <25: ++)
EC50 [1]: > 30 µM
Viability 1% FBS AVG (MTT V3-24 hr Normoxia) (μM) [2]: ++++ (≥30: ++++)
IC50 [3]: ≤ 200 nM

CC[C@H](C)[C@H](NC(=O)[C@H](CCCNC(=N)N)NC(=O)[C@H](CC(=O)O)NC(=O)[C@H](CC(C)C)NC(=O)[C@H](C)NC(=O)[C@H](CCSC)NC(=O)[C@]1(C)CCCC=CCCC[C@](C)(NC(=O)[C@H](CCSC)NC(=O)[C@H](CC(C)C)NC(=O)[C@@H](NC(=O)[C@H](Cc2c[nH]cn2)NC(=O)[C@H](CCC(=O)O)NC(=O)[C@H](CC(N)=O)NC(=O)[C@@H](NC(=O)[C@H](Cc2ccccc2)NC(C)=O)[C@@H](C)CC)C(C)C)C(=O)N[C@@H](CC(C)C)C(=O)N[C@@H](C(C)C)C(=O)N[C@@H]([C@@H](C)CC)C(=O)N1)C(N)=O [SP-286] (Ac-FINEHVLM[S5]LVI[S5]MALDRI-NH2; staple 9-13)
18 h Avg % max inhibition at top conc (HIF Rptr-24 hrs normoxia) (μM) [1]: ++ (≤10 but <25: ++)
EC50 [1]: > 30 µM
Viability 1% FBS AVG (MTT V3-24 hr Normoxia) (μM) [2]: ++++ (≥30: ++++)
IC50 [3]: > 700 nM

CCCC[C@H](NC(=O)[C@H](CCC(=O)O)NC(=O)[C@]1(C)CCCC=CCCCCCC[C@@](C)(NC(=O)[C@H](CCC(=O)O)NC(=O)[C@H](C)NC(=O)[C@@H](NC(=O)[C@H](Cc2ccccc2)NC(C)=O)[C@@H](C)CC)C(=O)N[C@@H](C(C)C)C(=O)N[C@@H](CC(C)C)C(=O)N[C@@H](CCCC)C(=O)N[C@@H](CO)C(=O)N[C@@H](CC(C)C)C(=O)N[C@@H](C(C)C)C(=O)N1)C(=O)N[C@@H](C)C(=O)N[C@@H](CC(C)C)C(N)=O [SP-197] (Ac-FIAE[R8]VL[Nle]SLV[S5]E[Nle]AL-NH2; staple 5-12)
18 h Avg % max inhibition at top conc (HIF Rptr-24 hrs normoxia) (μM) [1]: ++++ (≥50: ++++)
EC50 [1]: 5 to 15 µM
Viability 1% FBS AVG (MTT V3-24 hr Normoxia) (μM) [2]: ++++ (≥30: ++++)
IC50 [3]: > 700 nM

CCCC[C@H](NC(=O)[C@H](CCC(=O)O)NC(=O)[C@@H](NC(=O)[C@@H](NC(=O)[C@H](CC(C)C)NC(=O)[C@]1(C)CCCC=CCCC[C@](C)(NC(=O)[C@H](CCC(=O)O)NC(=O)[C@H](CC(=O)O)NC(=O)[C@@H](NC(=O)[C@H](CC(N)=O)NC(=O)[C@@H](NC(=O)[C@H](CCC(N)=O)NC(=O)[C@H](CC(=O)O)NC(=O)[C@H](CC(C)C)NC(=O)[C@H](C)NC(=O)[C@H](CCCNC(=N)N)NC(=O)[C@H](CC(C)C)NC(=O)[C@H](CC(C)C)NC(=O)[C@H](CCC(=O)O)NC(=O)[C@H](CCC(=O)O)NC(=O)CNC(=O)[C@H](CCC(N)=O)NC(=O)[C@H](CC(C)C)NC(=O)[C@H](CC(C)C)NC(C)=O)C(C)C)[C@@H](C)CC)C(=O)N[C@@H](C(C)C)C(=O)N[C@@H](CC(C)C)C(=O)N[C@@H](CCCC)C(=O)N1)C(C)C)[C@@H](C)CC)C(N)=O [SP-334] (Ac-LLQGEELLRALDQVNIDE[S5]VL[Nle][S5]LVIE[Nle]-NH2; staple 19-23)
18 h Avg % max inhibition at top conc (HIF Rptr-24 hrs normoxia) (μM) [1]: + (<10: +)
EC50 [1]: > 30 µM
Viability 1% FBS AVG (MTT V3-24 hr Normoxia) (μM) [2]: ++++ (≥30: ++++)
IC50 [3]: 200 to 400 nM

CCCC[C@H](NC(=O)[C@H](CCC(=O)O)NC(=O)[C@@H](NC(=O)[C@@H](NC(=O)[C@H](CC(C)C)NC(=O)[C@]1(C)CCCC=CCCC[C@](C)(NC(=O)[C@H](CCC(=O)O)NC(=O)[C@H](CC(=O)O)NC(=O)[C@@H](NC(=O)[C@H](Cc2ccccc2)NC(C)=O)[C@@H](C)CC)C(=O)N[C@@H](C(C)C)C(=O)N[C@@H](CC(C)C)C(=O)N[C@@H](CCCC)C(=O)N1)C(C)C)[C@@H](C)CC)C(=O)N[C@@H](C)C(=O)N[C@@H](CC(C)C)C(N)=O [SP-111] (Ac-FIDE[S5]VL[Nle][S5]LVIE[Nle]AL-NH2; staple 5-9)
18 h Avg % max inhibition at top conc (HIF Rptr-24 hrs normoxia) (μM) [1]: ++++ (≥50: ++++)
EC50 [1]: > 30 µM
Viability 1% FBS AVG (MTT V3-24 hr Normoxia) (μM) [2]: ++++ (≥30: ++++)
IC50 [3]: 200 to 400 nM
